Laboratory results reported in US20150352081A1, “USE OF PIDOTIMOD TO TREAT ATOPIC DERMATITIS” (POLICHEM S.A., priority 2012, published 2015).
Square brackets hold non-standard residues; d marks the D form. Peptide text beside a SMILES is read from it. pGlu = O=C1CC[C@@H](C(=O)O)N1; Thz = O=C(O)[C@@H]1CSCN1

What was measured:
[1] = system: patients affected by atopic dermatitis; experiment: Safety/tolerability of the treatment in patients with atopic dermatitis; format: in vivo, human; conditions: 5 patients, two applications daily, 12 weeks
Procedure: (§1) An evaluation of the activity of pidotimod was tested on patients affected by atopic dermatitis, in order to assess the efficacy in terms of improvement of the pathology by means of erythema evaluation. The safety of the treatment was also evaluated. The study was performed in 5 patients (4 females and 1 male, aged between 22-35 years, mean=29) with a clinical diagnosis of atopic dermatitis having as inclusion criteria the affection of the anterior flexural crease of the elbow or of the knee.
(§2) The study product was taken with the composition of the Example 1 at a dosage of two applications daily on the affected skin.
(§3) During the trial, the following visits were performed: • baseline—T0 (before the product use) • intermediate visit—T6 (after 6 weeks of treatment) • final visit—T12 (after 12 weeks of treatment)

[2] = system: patients affected by atopic dermatitis; experiment: Erythema score in patients with atopic dermatitis treated topically with pidotimod cream; format: in vivo, human; parameters: Effect on erythema score: dose or concentration left out as unconfirmed
Procedure: as §1, §2, §3
The efficacy of the product was expressed by mean of a 5 points erythema score, assessing the score at the baseline, at the intermediate visit and the final one.

Compound: O=C1CC[C@@H](C(=O)N2CSC[C@H]2C(=O)O)N1 [pidotimod, (4R)-3-(5-oxo-L-prolyl)-1,3-thiazolidine-4-carboxylic acid] ([pGlu]-[Thz]-OH)
- Side effects [1]: no side effects were reported
- Tolerability of the treatment [1]: very well tolerated
- Student t test p of the erythema score change ([2]; T12 (12 weeks) vs. T0 (baseline)): < 0.05
- Effect on erythema score ([2]; pidotimod cream, two applications daily, 12 weeks, compared to the baseline): able to improve the erythema score
